According to patent US20030181436A1, “Treatment for AIDS, HIV, and other related diseases and compounds for use therewith” (priority 2001, published 2003):

Tests used:
Assay type in all cases: cell-based
[1] = tested on: ACH-2 cells; experiment: ACH-2 assay, compound toxicity by MTS dye reduction; parameters: Y. CC / 9′. CC: unit not given here; details: exp 2
Protocol: (§1) At assay termination the assay plates were stained with the soluble tetrazolium-based dye MTS (CellTiter® Reagent, Promega) to determined cell viability and quantify compound toxicity. […] At termination of the assay 20 μL of MTS reagent was added per well. The wells were incubated for 4 h at 37° C., 5% CO2. Adhesive plate scalers were used in place of the lids, the sealed plate was inverted several times to mix the soluble formazan product and the plate was read spectrophotometrically at 490 nm with a 650 nm reference wavelength on a Molecular Devices Vmax plate reader.
(§2) U1 and ACH-2 cells were obtained from the AIDS Research and Reference Reagent Program and maintained under standard culture conditions in RPMI 1640 supplemented with 10% fetal bovine serum (heat inactivated), supplemented with 2 mM […], 100U/ml penicillin and 100 μg/ml, streptomycin. U1 cells were derived from the histocytic leukemia cell line U937, and contain a single integrated copy (HIV IIIB) […] a cytokine and/or phorbol inducible provirus. ACH-2 cells are derived from the A3.01 T lymphoblastic cell line, and contain 2 copies of the HIV IIIB provirus, however only one is cytokine and/or phorbol inducible. Cultures were maintained in such a way as to ensure exponential growth of the populations. At the time of the assay, cells were collected by centrifugation and counted by hemacytometer. If cell viability by Trypan Blue dye exclusion was less than 70% the assay was terminated. The cells were adjusted to 5×10^4 cells/mL and 100 μL, placed in 96 well plates with 100 μL media containing a final concentration of […] TNFα and the test compound. Cultures were incubated for 3 days and supernatants harvested. Compound toxicity was determined by MTS dye reduction. Virus expression was measured by supernatant reverse transcriptasc activity.

[2] = tested on: U1 cells; experiment: U1 assay, compound toxicity by MTS dye reduction; details: exp 2
Protocol: as §1, §2

[3] = tested on: HIV; experiment: HeLa CD4 LTR β-gal time of addition assay; details: single round, high M.O.I.
From the text: This time of addition assay measures reproducible events from initial virus binding to the trans activation of the β-galactosidase reporter by newly produced Tat protein. This is a single round of infection assay and is thus “cleaner” and more “precise” than a multi-round time of addition assay. […] Since it is hypothesized that the K and Z compounds work by interfering with virus transcription the later possibility seems more likely. Thus the use of a time of addition assay with PBMCs was utilized.

Substance: Potassium Iodiscorbate [Compound K]
- TOXICITY VALUES (MTS) MEAN ([1]; 0.00063 uM): 0.990 O. D.
- Y. CC ([1]; 0.00063 uM): 78.2
- TOXICITY VALUES (MTS) MEAN ([1]; 0.002 uM): 1.004 O. D.
- Y. CC ([1]; 0.002 uM): 79.3
- TOXICITY VALUES (MTS) MEAN ([1]; 0.00625 uM): 1.000 O. D.
- Y. CC ([1]; 0.00625 uM): 78.9
- TOXICITY VALUES (MTS) MEAN ([1]; 0.02 uM): 0.943 O. D.
- Y. CC ([1]; 0.02 uM): 74.4
- TOXICITY VALUES (MTS) MEAN ([1]; 0.0625 uM): 0.891 O. D.
- Y. CC ([1]; 0.0625 uM): 70.3
- TOXICITY VALUES (MTS) MEAN ([1]; 0.2 uM): 0.830 O. D.
- Y. CC ([1]; 0.2 uM): 65.6
- TOXICITY VALUES (MTS) MEAN ([1]; 0.625 uM): 0.826 O. D.
- Y. CC ([1]; 0.625 uM): 65.2
- TOXICITY VALUES (MTS) MEAN ([1]; 2 uM): 0.694 O. D.
- Y. CC ([1]; 2 uM): 54.8
- TOXICITY VALUES (MTS) MEAN ([1]; 6.25 uM): 0.208 O. D.
- Y. CC ([1]; 6.25 uM): 16.4
- TOXICITY VALUES (MTS) MEAN ([1]; 20 uM): 0.040 O. D.
- Y. CC ([1]; 20 uM): 3.2
- TOXICITY VALUES (MTS) MEAN ([1]; 62.5 uM): 0.020 O. D.
- Y. CC ([1]; 62.5 uM): 1.6
- TOXICITY VALUES (MTS) MEAN ([1]; 200 uM): 0.028 O. D.
- Y. CC ([1]; 200 uM): 2.2
- % CC ([2]; 0.00063 μM): 118.9%
- TOXICITY VALUES (MTS) MEAN ([2]; 0.00063 μM): 1.546 O. D.
- % CC ([2]; 0.002 μM): 119.4%
- TOXICITY VALUES (MTS) MEAN ([2]; 0.002 μM): 1.553 O. D.
- % CC ([2]; 0.00625 μM): 97.8%
- TOXICITY VALUES (MTS) MEAN ([2]; 0.00625 μM): 1.271 O. D.
- % CC ([2]; 0.0625 μM): 94.0%
- TOXICITY VALUES (MTS) MEAN ([2]; 0.0625 μM): 1.222 O. D.
- % CC ([2]; 0.2 μM [c7]): 84.8%
- TOXICITY VALUES (MTS) MEAN ([2]; 0.2 μM [c7]): 1.103 O. D.
- % CC ([2]; 0.2 μM [c9]): 101.5%
- TOXICITY VALUES (MTS) MEAN ([2]; 0.2 μM [c9]): 1.320 O. D.
- % CC ([2]; 0.625 μM): 93.4%
- TOXICITY VALUES (MTS) MEAN ([2]; 0.625 μM): 1.214 O. D.
- % CC ([2]; 2 μM): 89.1%
- TOXICITY VALUES (MTS) MEAN ([2]; 2 μM): 1.158 O. D.
- % CC ([2]; 6.25 μM): 83.3%
- TOXICITY VALUES (MTS) MEAN ([2]; 6.25 μM): 1.083 O. D.
- % CC ([2]; 20 μM): 70.3%
- TOXICITY VALUES (MTS) MEAN ([2]; 20 μM): 0.913 O. D.
- % CC ([2]; 62.5 μM): 80.8%
- TOXICITY VALUES (MTS) MEAN ([2]; 62.5 μM): 1.050 O. D.
- % CC ([2]; 200 μM): 26.3%
- TOXICITY VALUES (MTS) MEAN ([2]; 200 μM): 0.341 O. D.
- inhibition of HIV replication [3]: failed to inhibit
